# According to patent publication US7416741B2, “Copper lowering treatment of inflammatory and fibrotic diseases” (The Regents of the University of Michigan, priority 2002, dated 2008):
# How the values were obtained:
# [1] = Body weight and hematocrit in the bleomycin mouse model; format: in vivo; conditions: for Weight / Hematocrit: sacrifice day 21; for protection against weight loss from bleomycin: Ex 1 Exp 2; for mean hematocrit: day 21
# Experimental: Mice. Female CBA/J mice at 8-10 weeks of age were from the Jackson Laboratories (Bar Harbor, Me.). These mice weighed an average of 21.4 g at the start of experiments, with a standard deviation of 1.7 g.
# Bleomycin treatment. This was undertaken on day 0 by endotracheal instillation through the oral cavity after exposure of the airway by pulling the tongue. Each mouse received 0.001 units of bleomycin (Bristol-Myers, Evansville, Ind.)/gm body weight in 30 μl of sterile saline, while control mice received an equal volume of sterile saline only.
# TM treatment experiments. TM was given in 0.25 ml of water by intragastric gavage once daily, in the doses and times indicated in the various studies as described below.
# There were four experimental groups of five to seven mice each. Group 1 received bleomycin, group 2 was a saline control, group 3 received bleomycin and TM therapy, and group 4 was a TM therapy control. The TM was given in a dose of 0.7 mg/mouse/day beginning 7 days prior to bleomycin treatment. During days 9 to 11 after bleomycin, the TM-treated mice received 1.2 mg of TM daily, to ensure adequate lowering of copper levels, and then received 0.7 mg daily for the duration of the study. The mice were sacrificed 21 days after bleomycin treatment.
# In this experiment, the effect of TM at different doses after bleomycin administration was examined. Experimental groups of four bleomycin-treated and two to four control (non-bleomycin treated) mice were given varying doses of TM. Initially, All TM-treated mice received identical loading doses of 1.2 mg/mouse/day for 3 days (minus 5 to minus 3 days) prior to bleomycin administration. From that point on, groups of mice were given 0.3, 0.5, 0.7, or 0.9 mg of TM/mouse/day until sacrifice at day 21 after bleomycin treatment. A group of four bleomycin treated and a group of four non-bleomycin treated mice received no TM.
# Three experiments were carried out. Experiment 1 comprised four groups of three mice each. Group 1 received bleomycin only, group 2 received bleomycin and TM therapy, group 3 received saline in the trachea rather than bleomycin, and group 4 received TM therapy only. The mice in groups 2 and 4 each received 1.2 mg of TM per day for four days prior to bleomycin, and then were given 0.9 mg TM per day until sacrifice at seven days after bleomycin.
# Experiment 2 comprised four groups of five mice each. The four groups were assigned as in experiment 1 to bleomycin, bleomycin and TM, saline rather than bleomycin, and TM only. Groups 2 and 4 were started on TM five days after bleomycin treatment at a dose of 1.2 mg per day for four days, and then 0.9 mg per day until sacrifice at day 21.
# [2] = tested on: bleomycin mouse model of pulmonary fibrosis; assay: Microscopic evaluation of the lungs (H&E, Masson-trichrome); format: in vivo
# From the text: Microscopic evaluation of the lungs. For morphological evaluation of fibrosis, lungs were inflated with formalin at the time of sacrifice, and after overnight fixation were embedded in paraffin and sections prepared for H&E staining as well as for Masson-trichrome staining for evaluation of collagen deposition as previously described (M Gharaee-Kermani et al., J. Leukoc. Biol., 64:657-666 [1998]).
# Con A mouse model = assay: Serum ALT in the Con A mouse model of liver damage; format: in vivo; conditions: for Serum ALT / Serum ALT, Mean: Ex 5 Exp 1; for Serum ALT: one mouse; for Serum ALT, Mean: after 4th injection
# Experimental: A study was carried out in a mouse model of concanavilin A (Con A) production of liver cirrhosis. There were four experimental groups of several mice each. […] The Con A was injected intravenously once weekly into mice (0.3 mg/mouse/week), and produced a hepatitis, which is manifested by an increasing level of alanine transaminase (ALT) enzymes in the blood. The TM was given once daily by […] in a dose of 0.7 mg/mouse/day beginning 7 days prior to ConA treatment. During days 9 to 11 after Con A, the TM-treated mice received 1.2 mg of TM daily, to ensure adequate lowering of copper levels, and then received 0.7 mg daily for the duration of the study. A blood sample was obtained 28 days after ConA treatment, and the mice were sacrificed on the same day. Serum alanine transaminase (ALT) was measured in Sigma-Frankel (SF) units, where one unit is the formation of 0.000482 umoles of glutamate/minute at pH 7.5 and 25 ° C.
# This example describes additional TM treatment experiments in the model Concanavalin (Con A) mouse model of liver damage. As described previously, in the Con A mouse model, intravenously administered Con A produces an inflammatory reaction and cell damage in the animal's liver that is marked by the release hepatic transaminase enzymes, such as […] (ALT), into the blood. Several different experiments are reported in this example
# (§1) Twenty-four hours after each of the first three injections, one mouse from each group was bled, and serum ALT measured. In this experiment, TM was started in the TM treated mice before the first Con A injection. After the fourth injection of Con A, all the mice were bled for ALT and Cp measurements and the experiment terminated. The Cp levels in TM treated mice were 25-50% of non-TM treated animals.
# In a second experiment, Con A was given in weekly injections for four weeks, prior to any treatment with TM. The objective was to see if TM treatment would be useful after considerable organ damage had been allowed to occur. Then, one group of Con A treated animals were initiated on TM therapy.
# Cp = assay: Serum Cp in the Con A mouse model; format: in vivo; conditions: Ex 5 Exp 1; after fourth Con A injection
# From the text: as §1
# [3] = sheep; intravenous 99Mo labeled TM; cited from earlier work
smiles,measurement,setting,value
"[SH-].[SH-].[S]=[Mo]=[S] [TM, tetrathiomolybdate]",Weight,"[1]; Ex 1 Exp 1, Bleomycin/TM group, TM 0.7 mg/mouse/day gavage from 7 days before bleomycin",21.2 ± 0.8 g
same,Hematocrit,"[1]; Ex 1 Exp 1, Bleomycin/TM group",39.7 ± 2.6
same,effect of TM alone on weight,"[1]; Ex 1 Exp 1, TM alone (group 4)",tended to produce some weight loss
same,Weight,"[1]; Ex 1 Exp 1, TM only group (no bleomycin), 0.7 mg/mouse/day",20.4 ± 1.0 g
same,Hematocrit,"[1]; Ex 1 Exp 1, TM only group",44.1 ± 1.0
same,protection against bleomycin induced weight loss,"[1]; Ex 1 Exp 1, bleomycin/TM group",protected against some of the bleomycin induced weight loss
same,protection against weight loss from bleomycin,[1]; 0.3 mg TM dose,only slightly protective
same,protection against weight loss from bleomycin,[1]; 0.5 mg TM dose,intermediately protective
same,protection against weight loss from bleomycin,[1]; 0.7 mg TM dose,intermediately protective
same,protection against weight loss from bleomycin,[1]; 0.9 mg TM dose,fully protective
same,mean weight in the bleomycin/TM group,"[1]; Ex 2 Exp 1, sacrifice day 7",almost exactly the same as the saline control group
same,mean hematocrit,"[1]; Ex 2 Exp 2, TM group",43.8%
same,mean weight at the time of sacrifice,"[1]; Ex 2 Exp 2, bleomycin/TM group, TM started 5 days after bleomycin",19.6 g
same,mean hematocrit,"[1]; Ex 2 Exp 2, bleomycin/TM group",44.3%
same,collagen deposition (Masson-trichrome),"[2]; Ex 1 Exp 1, TM treated group vs bleomycin only",much less collagen deposition
same,lung histopathology (H&E): patches of fibrosis and inflammatory cells,"[2]; Ex 1 Exp 1, TM-treated bleomycin animals vs bleomycin alone",substantially smaller with lesser degrees of cellular infiltration
same,histopathological evaluation of fibrotic lesions,"[2]; Ex 1 Exp 2, increasing TM dose",diminution of fibrotic lesion size with increasing dose of TM
same,ConA induced increase of serum alanine transaminase (ALT),"Con A mouse model; Ex 4, TM 0.7 mg/mouse/day from 7 days before ConA, 28 days",almost completely inhibits
same,Serum ALT,"Con A mouse model; Con A + TM, 24 h after 1st Con A injection",52 Sigma-Frankel units
same,Serum ALT,"Con A mouse model; Con A + TM, after 2nd injection",50 Sigma-Frankel units
same,Serum ALT,"Con A mouse model; Con A + TM, after 3rd injection",63 Sigma-Frankel units
same,"Serum ALT, Mean","Con A mouse model; Con A + TM, n 4","74^2,3 Sigma-Frankel units"
same,Serum ALT,"Con A mouse model; TM only control, 24 h after 1st injection",85 Sigma-Frankel units
same,Serum ALT,"Con A mouse model; TM only control, after 2nd injection",39 Sigma-Frankel units
same,Serum ALT,"Con A mouse model; TM only control, after 3rd injection",49 Sigma-Frankel units
same,"Serum ALT, Mean","Con A mouse model; TM only control, n 3",38 Sigma-Frankel units
same,ALT values,"Con A mouse model; Ex 5 Exp 2, TM started after four weeks of weekly Con A, Con A continued",returned to normal
same,Cp levels in TM treated mice relative to non-TM treated animals,Cp,25-50%
same,excreted in feces,[3],5%
same,excreted in urine,[3],over 90%
same,half-time of slow disappearance from plasma,[3],about 40 h
